Measured values from US20260232767A1, “INTERLEUKIN-23 RECEPTOR ANTAGONIST PEPTIDES FOR USE IN THE TREATMENT OF PSORIASIS” (Janssen Pharmaceutica NV, priority 2023, published 2026).

Tested on: subjects with moderate-to-severe plaque psoriasis
Assay: Safety, adverse events, Example 2 through Week 56
Format: in vivo, human
Excerpt: The LTE safety analysis was based on randomized participants in Example who entered the present long-term extension study and received at least one dose of study intervention (including a partial dose) during the study period.

[1] = 25 mg QD, Week 16 through Week 56

CC(=O)NCCCC[C@@H]1NC(=O)[C@H](Cc2c[nH]c3c(C)cccc23)NC(=O)[C@H]([C@@H](C)O)NC(=O)[C@H](CC(N)=O)NC(=O)[C@@H](NC(C)=O)C(C)(C)SSC(C)(C)[C@@H](C(=O)N[C@@H](Cc2ccc(OCCN)cc2)C(=O)N[C@@H](Cc2ccc3ccccc3c2)C(=O)NC2(C(=O)N[C@@H](CCC(=O)O)C(=O)N[C@@H](CC(N)=O)C(=O)N[C@@H](Cc3cccnc3)C(=O)N(C)CC(N)=O)CCOCC2)NC1=O [IL-23 receptor antagonist peptide, Ac-[Pen]*-N-T-[W(7-Me)]-[Lys(Ac)]-[Pen]*-Phe[4-(2-aminoethoxy)]-[2-Nal]-[THP]-E-N-[3-Pal]-Sarc-NH2 (*[Pen]-[Pen]* formdisulfidebond)]
(7.3%): Metabolism and nutrition disorders: % of subjects (25 mg BID, through Week 56)
1: Neoplasms benign, malignant and unspecified (incl cysts and polyps): number of subjects (25 mg BID, through Week 56) | Psoriasis: number of subjects (25 mg BID, through Week 56) | Psychiatric disorders: number of subjects (25 mg BID, through Week 56) | Respiratory, thoracic and mediastinal disorders: number of subjects (25 mg BID, through Week 56) | Sunburn: number of subjects (25 mg BID, through Week 56) | Tonsillar hypertrophy: number of subjects (25 mg BID, through Week 56) | Ventricular dysfunction: number of subjects (25 mg BID, through Week 56) | Vitamin D deficiency: number of subjects (25 mg BID, through Week 56) | Number of subjects with treatment-emergent AE: Ear and labyrinth disorders [1] | Number of subjects with treatment-emergent AE: Vertigo [1] | Alopecia: number of subjects (25 mg QD, through Week 56) | Blood and lymphatic system disorders: number of subjects (25 mg QD, through Week 56)
2: Skin and subcutaneous tissue disorders: number of subjects (25 mg BID, through Week 56) | Vascular disorders: number of subjects (25 mg BID, through Week 56)
3: Metabolism and nutrition disorders: number of subjects (25 mg BID, through Week 56)
8: Subjects with treatment-emergent AE: Nasopharyngitis (25 mg BID, through Week 56)
0: Ketonuria: number of subjects (25 mg BID, through Week 56) | Leukocyturia: number of subjects (25 mg BID, through Week 56) | Leukopenia: number of subjects (25 mg BID, through Week 56) | Libido decreased: number of subjects (25 mg BID, through Week 56) | Liver disorder: number of subjects (25 mg BID, through Week 56) | Lymphopenia: number of subjects (25 mg BID, through Week 56) | Menopause: number of subjects (25 mg BID, through Week 56) | Nephrolithiasis: number of subjects (25 mg BID, through Week 56) | Neutropenia: number of subjects (25 mg BID, through Week 56) | Night sweats: number of subjects (25 mg BID, through Week 56) | Non-cardiac chest pain: number of subjects (25 mg BID, through Week 56) | Ocular cyst: number of subjects (25 mg BID, through Week 56) | Oedema peripheral: number of subjects (25 mg BID, through Week 56) | Oropharyngeal pain: number of subjects (25 mg BID, through Week 56) | Procedural pain: number of subjects (25 mg BID, through Week 56) | Productive cough: number of subjects (25 mg BID, through Week 56) | Proteinuria: number of subjects (25 mg BID, through Week 56) | Pruritus: number of subjects (25 mg BID, through Week 56) | Pyrexia: number of subjects (25 mg BID, through Week 56) | Rash pruritic: number of subjects (25 mg BID, through Week 56) | Renal and urinary disorders: number of subjects (25 mg BID, through Week 56) | Renal mass: number of subjects (25 mg BID, through Week 56) | Retinal vein occlusion: number of subjects (25 mg BID, through Week 56) | Rhinorrhoea: number of subjects (25 mg BID, through Week 56) | Seasonal allergy: number of subjects (25 mg BID, through Week 56) | Skin laceration: number of subjects (25 mg BID, through Week 56) | Skin papilloma: number of subjects (25 mg BID, through Week 56) | Social circumstances: number of subjects (25 mg BID, through Week 56) | Steatohepatitis: number of subjects (25 mg BID, through Week 56) | Subjects with AE leading to discontinuation: Abdominal discomfort (25 mg BID, through Week 56) | Subjects with AE leading to discontinuation: Abdominal pain (25 mg BID, through Week 56) | Subjects with AE leading to discontinuation: Alanine aminotransferase increased (25 mg BID, through Week 56) | Subjects with AE leading to discontinuation: Aspartate aminotransferase increased (25 mg BID, through Week 56) | Subjects with AE leading to discontinuation: Ear and labyrinth disorders (25 mg BID, through Week 56) | Subjects with AE leading to discontinuation: Gamma-glutamyltransferase increased (25 mg BID, through Week 56) | Subjects with AE leading to discontinuation: Investigations (25 mg BID, through Week 56) | Subjects with AE leading to discontinuation: Nausea (25 mg BID, through Week 56) | Subjects with AE leading to discontinuation: Suicide attempt (25 mg BID, through Week 56) | Subjects with AE leading to discontinuation: Transaminases increased (25 mg BID, through Week 56) | Subjects with AE leading to discontinuation: Vertigo (25 mg BID, through Week 56) | Subjects with AE leading to discontinuation: Vomiting (25 mg BID, through Week 56) | Subjects with AE leading to discontinuation: Weight increased (25 mg BID, through Week 56) | Subjects with COVID-19 associated AE: SARS-CoV-2 test positive (25 mg BID, through Week 56) | Subjects with treatment-emergent AE: Arthralgia (25 mg BID, through Week 56) | Subjects with treatment-emergent AE: Cough (25 mg BID, through Week 56) | Subjects with treatment-emergent serious AE: COVID-19 (25 mg BID, through Week 56) | Subjects with treatment-emergent serious AE: Cerebrovascular accident (25 mg BID, through Week 56) | Subjects with treatment-emergent serious AE: Coronary artery disease (25 mg BID, through Week 56) | Subjects with treatment-emergent serious AE: Diverticulitis (25 mg BID, through Week 56) | Subjects with treatment-emergent serious AE: Foot deformity (25 mg BID, through Week 56) | Subjects with treatment-emergent serious AE: General disorders and administration site conditions (25 mg BID, through Week 56) | Subjects with treatment-emergent serious AE: Infected cyst (25 mg BID, through Week 56) | Subjects with treatment-emergent serious AE: Infections and infestations (25 mg BID, through Week 56) | Subjects with treatment-emergent serious AE: Intervertebral disc protrusion (25 mg BID, through Week 56) | Subjects with treatment-emergent serious AE: Musculoskeletal and connective tissue disorders (25 mg BID, through Week 56) | Subjects with treatment-emergent serious AE: Neoplasms benign, malignant and unspecified (incl cysts and polyps) (25 mg BID, through Week 56) | Subjects with treatment-emergent serious AE: Nervous system disorders (25 mg BID, through Week 56) | Subjects with treatment-emergent serious AE: Non-cardiac chest pain (25 mg BID, through Week 56) | Subjects with treatment-emergent serious AE: Psychiatric disorders (25 mg BID, through Week 56) | Subjects with treatment-emergent serious AE: Suicide attempt (25 mg BID, through Week 56) | Subjects with treatment-emergent serious AE: Uterine leiomyoma (25 mg BID, through Week 56) | Suicide attempt: number of subjects (25 mg BID, through Week 56) | Thrombocytopenia: number of subjects (25 mg BID, through Week 56) | Thrombocytosis: number of subjects (25 mg BID, through Week 56) | Tooth fracture: number of subjects (25 mg BID, through Week 56) | Type 2 diabetes mellitus: number of subjects (25 mg BID, through Week 56) | Urinary tract disorder: number of subjects (25 mg BID, through Week 56) | Uterine leiomyoma: number of subjects (25 mg BID, through Week 56) | Vertigo: number of subjects (25 mg BID, through Week 56) | Number of subjects with treatment-emergent AE: Cholelithiasis [1] | Number of subjects with treatment-emergent AE: Endocrine disorders [1] | Number of subjects with treatment-emergent AE: Eye disorders [1] | Number of subjects with treatment-emergent AE: Eyelid skin dryness [1] | Number of subjects with treatment-emergent AE: Goiter [1] | Number of subjects with treatment-emergent AE: Hepatobiliary disorders [1] | Number of subjects with treatment-emergent AE: Hypertransaminasemia [1] | Number of subjects with treatment-emergent AE: Immune system disorders [1] | Number of subjects with treatment-emergent AE: Insomnia [1] | Number of subjects with treatment-emergent AE: Ocular cyst [1] | Number of subjects with treatment-emergent AE: Psychiatric disorders [1] | Number of subjects with treatment-emergent AE: Retinal vein occlusion [1] | Number of subjects with treatment-emergent AE: Seasonal allergy [1] | Acrochordon: number of subjects (25 mg QD, through Week 56) | Actinic keratosis: number of subjects (25 mg QD, through Week 56) | Asthenia: number of subjects (25 mg QD, through Week 56) | Asthma: number of subjects (25 mg QD, through Week 56) | Atrioventricular block first degree: number of subjects (25 mg QD, through Week 56) | Basal cell carcinoma: number of subjects (25 mg QD, through Week 56) | Bronchitis chronic: number of subjects (25 mg QD, through Week 56) | Bundle branch block right: number of subjects (25 mg QD, through Week 56)
(2.4%): Neoplasms benign, malignant and unspecified (incl cysts and polyps): % of subjects (25 mg BID, through Week 56) | Psoriasis: % of subjects (25 mg BID, through Week 56) | Psychiatric disorders: % of subjects (25 mg BID, through Week 56) | Respiratory, thoracic and mediastinal disorders: % of subjects (25 mg BID, through Week 56) | Sunburn: % of subjects (25 mg BID, through Week 56) | Tonsillar hypertrophy: % of subjects (25 mg BID, through Week 56) | Ventricular dysfunction: % of subjects (25 mg BID, through Week 56) | Vitamin D deficiency: % of subjects (25 mg BID, through Week 56)
(2.3%): Alopecia: % of subjects (25 mg QD, through Week 56) | Blood and lymphatic system disorders: % of subjects (25 mg QD, through Week 56)
(2.9%): Subjects with treatment-emergent AE: Ear and labyrinth disorders (%) [1] | Subjects with treatment-emergent AE: Vertigo (%) [1]
(4.9%): Skin and subcutaneous tissue disorders: % of subjects (25 mg BID, through Week 56) | Vascular disorders: % of subjects (25 mg BID, through Week 56)
